# Assay results taken from PMC3772632 (Nature structural & molecular biology, 2013).
# Legend:
# [1] = system: DnaK Trp102 (NBD-SBD allosteric coupling); details: cited from earlier work
# SBD = details: cited from earlier work
# [2] = system: dnak deletion strain BB205; test: Growth tests in dnak deletion strain BB205 at 37°C; format: cell-based, E. coli; details: serial dilutions spotted on LB plates, 20 μM IPTG, one overnight
# DnaK ATPase = details: ref [16],[28]; cited from earlier work
molecule,measurement,setting,value
Nc1ncnc2c1ncn2[C@@H]1O[C@H](COP(=O)(O)OP(=O)(O)OP(=O)(O)O)[C@@H](O)[C@H]1O [ATP],ATP-induced change of tryptophan fluorescence,"[1]; full-length DnaK, relative to apo and ADP-bound forms, ref [16]",blue-shift and fluorescence quenching
same,Binding and release rates of substrates upon ATP binding,SBD; Hsp70 (mainly DnaK),"greatly accelerated, more for release than binding"
same,Reduction of affinity of SBD for its substrates upon ATP binding,"SBD; ref [19],[20]",two to three
D100L: DnaK mutated individually at Asp100,in vivo DnaK function / activity in growth tests,[2],moderate growth phenotype
G461P,in vivo DnaK function / activity in growth tests,[2],compromised in vivo DnaK function modestly
G468P,in vivo DnaK function / activity in growth tests,[2],compromised in vivo DnaK function modestly
T199A: well-characterized mutation that abolishes ATPase activity but maintains allosteric coupling,Allosteric coupling of mutant,"[1]; ref [16],[28]",maintains allosteric coupling
same,ATPase activity of mutant,DnaK ATPase,abolishes ATPase activity
